Laboratory results taken from patent publication US12172988B2, “Anticancer and antifungal splice modulators” (priority 2021, dated 2024).
Where two headings read alike, the source gives them in different places.

How the values were obtained:
Type in all cases: cell-based, human
[1] = system: HCT116 colorectal carcinoma cells; assay: MTS cell viability / cell growth inhibition assay; settings: for GI50: Homo sapiens, HCT-116, 72 h; for cell growth inhibitory activity compared to FD-895: HCT-116 cells
Procedure: With milligram quantities of 1a-1i at hand, we began our studies to evaluate the relative efficacy of each analogue using cell growth inhibition studies in HCT116 colorectal carcinoma cells. As reported in FIG. 3, GI50 values were collected for each analog after a 72 h treatment using the MTS cell viability assay (Table 12). Under these conditions, the natural FD-895 (1), 3S-FD-895 (1a) 17S-FD-895 (1d), 17-methoxy-FD-895 (1e) provided activities of <10 nM.
HCT-116 cells was cultured in McCoy's 5a (Life Technologies) supplemented with 10% fetal bovine serum (FBS), 2 mM L-glutamine, and 100 U mL^−1 of penicillin and 100 μg mL^−1 of streptomycin at 37° C. in an atmosphere of 5% CO2. Compounds were dissolved in DMSO (MilliporeSigma). Cells were treated with 1-1j in media with ≥0.5% DMSO for 4-72 h.
Studies were conducted in […] cell culture plates. HCT-116 plated at 5×10^3 cells/well were cultured for 24 h and then treated with analogs 1-1j for 4-72 h, then washed twice with 100 μL PBS. PBS (100 μL) was added to each well, followed by 20 μL of CellTiter Aqueous One Solution (Promega). After 2 h at 37° C., absorbance readings were taken at 490 nm (test wavelength) and 690 nm (reference wavelength). GI50 values were calculated in Prism (GraphPad) using greater 3 replicates.
(§1) Cells were treated with 1 or 1a-1j in media (McCoy's 5a (Life Technologies) supplemented with 10% FBS, 2 mM L-glutamine, and 100 U mL^−1 of penicillin and 100 μg mL^−1 of streptomycin 0.5% DMSO) for 4 h or 24 h. Untreated cells were considered were used as negative control. Total RNA was isolated using mirVana miRNA isolation kit (Life Technologies). A 1 μg sample of RNA was subjected to DNAseI from a TURBO DNA free kit (Life Technologies). The cDNA was prepared by using SuperScript III reverse transcriptase kit (Life Technologies). The amount of unspliced RNA for different genes was determined using Power SYBR Green PCR master mix (Applied Biosystems) by qPCR using specific primers for each gene. qPCR using 2.5 μM of each primer was performed on 5 ng of the obtained cDNA. qPCR conditions were as follows: 95° C. for 10 min for one cycle, then 95° C. for 10 min for one cycle, then 95° C. for 30 s, 55° C. for 60 s, 72° C. for 60 s, for 40 cycles using the MXPro. Quantification cycle (Cq) values were identified for each sample, and then RNA levels were calculated using 2-ΔΔCT method. GAPDH was used as a control for normalization. At least three replicates were conducted for each compound. Namely, all genes explored in this study were evaluated from the same cell cultures. Here, individual cultures were used for each compound explored and at least three replicates were used for each compound. While experimental variation occurred between the different compound treatments, the levels of the different intron retention, exon skipping or RNA expression were collected from the same cellular material. Statistics were calculated using a standard one-way ANOVA; p values were represented so that * signifies p<0.0001. HCT116 were treated with analogs 1-1j ranging from 0.1-5000 nM for 72 hours, then cell viability was measured using the MTS assay. GI50 values and confidence intervals were calculated using GraphPad (Table 12).

DNAJB1 = assay: qPCR splicing analysis, DNAJB1 intron retention; settings: HCT116, 4 h, 20 times GI50, qPCR relative to GAPDH
Procedure: (§2) HCT116 tumor cells were treated with each analogue at 20 times the G150 value (Table 12) for 4 hours and then cellular RNA was isolated and purified for qPCR. Primers were designed to evaluate intron retention or exon skipping, direct responses to splice modulator treatment. Genes evaluated included those involved in splicing regulation (SF3A1, SF3A3, SF3B1, SF3B2), apoptosis (MCL-1L), protein folding (DNAJB1), and cell cycle regulation (AURKA, PLK-1) relative to the unspliced control GAPDH. For alternative splicing regulator (SF2), primers were designed to evaluate gene expression, which changes in response splice modulator treatment for SF2 relative to the unspliced control GAPDH. (−) denotes untreated cells.
as §2, with “analogues” for “each analogue”, “100 nM (light grey), 250 nM (grey), or 500 nM (black)” for “20 times the G150 value (Table 12)”, “24 h” for “4 hours”, “(MCL-1L), and” for “(MCL-1L),”, “(DNAJB1),” for “(DNAJB1), and cell cycle regulation (AURKA, PLK-1)”, “(—)” for “(−)”
(§3) Next, we turned our efforts to explore the ability of these analogues to modulate splicing. […] We treated cells for 4 h so that we could evaluate early changes in splicing activity, and then cellular RNA was isolated and purified for analyses by qPCR (FIG. 14). Most importantly, none of the concentrations tested led to significant changes in cell viability, ensuring that changes in gene expression were not due to cell death.
(§4) For these studies, we evaluated the expression of genes involved in splicing regulation (SF3A1, SF3A3, SF3B1, SF3B2), apoptosis (MCL-1L), protein folding (DNAJB1), and cell cycle regulation (AURKA, PLK-1) relative to the unspliced control GAPDH. Primers were designed to evaluate intron retention or exon skipping, direct responses to splice modulator treatment. The master splicing regulator alternative splicing factor (SF2) was also evaluated, with the primers for this gene designed to evaluate overall gene expression, which changes in response to splice modulator treatment.
(§5) From this 4 h study (FIG. 14), a small set of analogs (1, 1b, 1g, 1d, 1e, 1i and 1j) were selected to evaluate if effects on splicing when presented for a longer 24 h period. […] Using identical procedures as that used for 4 h, HCT116 cells were treated with three concentrations (100 nM, 250 nM and 500 nM) of each analog for 24 h. Multiple concentrations were used as a means to check further validate the use of the GI50 concentration in our prior study (FIG. 14). As before, none of the concentrations tested led to significant changes in cell viability over the 24-hour time window, ensuring that changes in gene expression were not due to cell death.
Cells were treated with 1 or 1a-1j in media (McCoy's 5a (Life Technologies) supplemented with 10% FBS, 2 mM L-glutamine, and 100 U mL^−1 of penicillin and 100 μg mL^−1 of streptomycin 0.5% DMSO) for 4 h or 24 h. Untreated cells were considered were used as negative control. Total RNA was isolated using mirVana miRNA isolation kit (Life Technologies). […]

SF3A1 = assay: qPCR splicing analysis, SF3A1 intron retention; settings: HCT116, 4 h, 20 times GI50, qPCR relative to GAPDH
Procedure: as §2
as §2, with “analogues” for “each analogue”, “100 nM (light grey), 250 nM (grey), or 500 nM (black)” for “20 times the G150 value (Table 12)”, “24 h” for “4 hours”, “(MCL-1L), and” for “(MCL-1L),”, “(DNAJB1),” for “(DNAJB1), and cell cycle regulation (AURKA, PLK-1)”, “(—)” for “(−)”
as §3, §4, §5
(§6) Cells were treated with 1 or 1a-1j in media (McCoy's 5a (Life Technologies) supplemented with 10% FBS, 2 mM L-glutamine, and 100 U mL^−1 of penicillin and 100 μg mL^−1 of streptomycin 0.5% DMSO) for 4 h or 24 h. Untreated cells were considered were used as negative control. Total RNA was isolated using mirVana miRNA isolation kit (Life Technologies). A 1 μg sample of RNA was subjected to DNAseI from a TURBO DNA free kit (Life Technologies). The cDNA was prepared by using SuperScript III reverse transcriptase kit (Life Technologies). […]

AURKA = assay: qPCR splicing analysis, AURKA exon skipping / expression; settings: HCT116, 4 h, 20 times GI50, qPCR
Procedure: as §2
Next, we turned our efforts to explore the ability of these analogues to modulate splicing. […] We treated cells for 4 h so that we could evaluate early changes in splicing activity, and then cellular RNA was isolated and purified for analyses by qPCR (FIG. 14). […]
For these studies, we evaluated the expression of genes involved in splicing regulation (SF3A1, SF3A3, SF3B1, SF3B2), apoptosis (MCL-1L), protein folding (DNAJB1), and cell cycle regulation (AURKA, PLK-1) relative to the unspliced control GAPDH. […] The master splicing regulator alternative splicing factor (SF2) was also evaluated, with the primers for this gene designed to evaluate overall gene expression, which changes in response to splice modulator treatment. […]
Cells were treated with 1 or 1a-1j in media (McCoy's 5a (Life Technologies) supplemented with 10% FBS, 2 mM L-glutamine, and 100 U mL^−1 of penicillin and 100 μg mL^−1 of streptomycin 0.5% DMSO) for 4 h or 24 h. […] The amount of unspliced RNA for different genes was determined using Power SYBR Green PCR master mix (Applied Biosystems) by qPCR using specific primers for each gene. qPCR using 2.5 μM of each primer was performed on 5 ng of the obtained cDNA. qPCR conditions were as follows: 95° C. for 10 min for one cycle, then 95° C. for 10 min for one cycle, then 95° C. for 30 s, 55° C. for 60 s, 72° C. for 60 s, for 40 cycles using the MXPro. […]

HCT116 tumor cells = assay: qPCR structure-splicing profile over the gene panel; settings: HCT116, 24 h, 100, 250, 500 nM, compared to 1
Procedure: as §2, with “analogues” for “each analogue”, “100 nM (light grey), 250 nM (grey), or 500 nM (black)” for “20 times the G150 value (Table 12)”, “24 h” for “4 hours”, “(MCL-1L), and” for “(MCL-1L),”, “(DNAJB1),” for “(DNAJB1), and cell cycle regulation (AURKA, PLK-1)”, “(—)” for “(−)”
as §4, §5, §1

SF3B2 = assay: qPCR splicing analysis, SF3B2 intron retention; settings: HCT116, 4 h, 20 times GI50, qPCR relative to GAPDH
Procedure: as §2
as §2, with “analogues” for “each analogue”, “100 nM (light grey), 250 nM (grey), or 500 nM (black)” for “20 times the G150 value (Table 12)”, “24 h” for “4 hours”, “(MCL-1L), and” for “(MCL-1L),”, “(DNAJB1),” for “(DNAJB1), and cell cycle regulation (AURKA, PLK-1)”, “(—)” for “(−)”
as §3, §4, §5, §6

[2] = HCT116, 72 hours, MTS assay, 0.1-5000 nM, read-out: GI50 value

Row | SMILES | GI50 ([1]; read-out: GI50 value) [nM] | SF3A1 intron 6 retention (level of intron retention) (SF3A1) | cell growth inhibitory activity compared to FD-895 [1] | GI50 ([1]; read-out: GI50 value (text)) [nM] | other results
1 | CC[C@H](OC)[C@@H](C)[C@H]1O[C@@H]1[C@H](O)[C@H](C)/C=C/C=C(\C)[C@H]1OC(=O)C[C@H](O)CC[C@@](C)(O)[C@@H](OC(C)=O)/C=C/[C@@H]1C [Analog 1, FD-895, reference compound] | 1.72 |  |  |  | 
2 | CC[C@H](OC)[C@@H](C)[C@H]1O[C@@H]1[C@H](O)[C@H](C)/C=C/C=C(\C)[C@H]1OC(=O)C[C@@H](O)CC[C@@](C)(O)[C@@H](OC(C)=O)/C=C/[C@@H]1C [Analog 1a, 3S-FD-895] | 2.21 | more effective than 1 | compromised activity | < 10 | DNAJB1 intron 2 retention (level of intron retention) (DNAJB1): highest level of intron retention; effect on exon 4 skipping in AURKA (AURKA): most potent effect
3 | CC[C@H](OC)[C@@H](C)[C@H]1O[C@@H]1[C@H](O)[C@H](C)/C=C/C=C(\C)[C@H]1OC(=O)C[C@H](O)CC[C@@](C)(O)[C@H](OC(C)=O)/C=C/[C@@H]1C [Analog 1b, 7R-FD-895] | 432 |  | compromised activity |  | splicing activity over the genes tested (HCT116 tumor cells): loss of splicing activity when compared to 1; SF3B2 intron retention (level of intron retention) (SF3B2): improved efficacy; fold less active (GI50) than 1 ([1]; HCT116 cell growth inhibition, compared to 1): 250 fold
4 | CC[C@H](OC)[C@@H](C)[C@H]1O[C@@H]1[C@H](O)[C@H](C)/C=C/C=C(\C)[C@@H]1OC(=O)C[C@H](O)CC[C@@](C)(O)[C@@H](OC(C)=O)/C=C/[C@H]1C [Analog 1c, 10R,11R-FD-895] | 36600 |  |  | 37000 | 
5 | CC[C@H](OC)[C@@H](C)[C@H]1O[C@@H]1[C@H](OC)[C@H](C)/C=C/C=C(\C)[C@H]1OC(=O)C[C@H](O)CC[C@@](C)(O)[C@@H](OC(C)=O)/C=C/[C@@H]1C [Analog 1e, 17-methoxy-FD-895] |  | more effective than 1 | comparable cell growth inhibitor activity as 1 |  | DNAJB1 intron 2 retention (level of intron retention) (DNAJB1): highest level of intron retention; splicing activity over the genes tested (HCT116 tumor cells): comparable or slightly reduced splice modulatory activity as 1; GI50 [1, 2]: 2.21 nM
6 | CC[C@H](OC)[C@@H](C)[C@H]1O[C@@H]1[C@@H](OC)[C@H](C)/C=C/C=C(\C)[C@H]1OC(=O)C[C@H](O)CC[C@@](C)(O)[C@@H](OC(C)=O)/C=C/[C@@H]1C [Analog 1f, 17-methoxy-17S-FD-895] |  | more effective than 1 |  |  | fold loss in activity ([1]; HCT116 GI50, double modification (methylation and inversion at C17)): 10 fold; GI50 [1, 2]: 37.6 nM; GI50 ([1]; HCT116, 72 h treatment, MTS cell viability assay, read-out: GI50 value): 38 nM
7 | CC[C@H](OC)[C@@H](C)[C@H]1O[C@@H]1[C@@H](O)[C@H](C)/C=C/C=C(\C)[C@H]1OC(=O)C[C@H](O)CC[C@@](C)(O)[C@H](OC(C)=O)/C=C/[C@@H]1C [Analog 1h, 7R,17S-FD-895] | 806 |  |  | 806 | fold less effective compared to 1b ([1]; HCT116 GI50, compared to 1b): 1.8 fold; fold less effective compared to 1d ([1]; HCT116 GI50, compared to 1d): 380 fold
